In BindingDB's records for doi:10.1021/acs.jmedchem.8b01497 ("Sapienza" Universit&#163, 2018) one finds IC50 data, which are given here for one molecule.

This test deals with T1, Heparanase (Homo sapiens, UniProt Q9Y251).
T1 sequence (Q9Y251 whole entry): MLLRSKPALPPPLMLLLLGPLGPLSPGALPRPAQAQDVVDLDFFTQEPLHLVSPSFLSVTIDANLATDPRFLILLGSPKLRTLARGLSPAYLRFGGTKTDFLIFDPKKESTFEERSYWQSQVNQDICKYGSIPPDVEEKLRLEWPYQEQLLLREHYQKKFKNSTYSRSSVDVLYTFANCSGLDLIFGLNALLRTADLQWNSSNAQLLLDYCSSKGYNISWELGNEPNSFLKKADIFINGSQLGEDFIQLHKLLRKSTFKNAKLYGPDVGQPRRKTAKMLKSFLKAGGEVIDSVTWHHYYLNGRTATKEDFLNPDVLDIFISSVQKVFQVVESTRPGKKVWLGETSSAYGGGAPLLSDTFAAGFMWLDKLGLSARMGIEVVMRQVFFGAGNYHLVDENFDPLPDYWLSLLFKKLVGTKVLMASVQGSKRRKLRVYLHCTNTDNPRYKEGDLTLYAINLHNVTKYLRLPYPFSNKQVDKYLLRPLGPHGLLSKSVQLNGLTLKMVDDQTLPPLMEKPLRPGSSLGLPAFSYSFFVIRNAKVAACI
The test is described as follows: Inhibition of recombinant HPSE (unknown origin) using fondaparinux as substrate incubated for 3 hrs in absence of light by WST1 assay.

For the molecule `CC(=O)N[C@H]1[C@@H](O[C@@H](CO)C(O[C@H](O)CO)C(=O)O)O[C@H](CO)[C@@H](O[C@@H]2OC(C(=O)O)[C@@H](O[C@H]3O[C@H](CO)[C@@H](O)[C@H](O)[C@H]3NC(C)=O)[C@H](O)[C@H]2OS(=O)(=O)O)[C@@H]1O` (stereo partly specified), the IC50 came out at 5 nM.

As a reminder, the IC50 is the concentration that gives 50% inhibition.
